Reference: patent publication US4130514A, “Synthesis of peptides” (Armour Pharmaceutical Company, priority 1978, dated 1978)

Experiment: adrenocorticotropic activity of the purified peptides (no method described)
Settings: peptide purified by carboxymethylcellulose ion-exchange chromatography and Sephadex gel filtration; result in words only

## [D-ala^1, asn^25 ]-ACTH-(1-25) [[D-ala^1 ,gln^25]-ACTH-(1-25)]
  adrenocorticotropic activity: found to have adrenocorticotropic activity
